The test system of test [1] is HEY. Briefly: Cytotoxicity against human HEY cell line at 20 uM by MTT assay. Format: functional. In general terms: Tetrazolium dyes change colour on reduction, which living cells bring about.
For test [2], the system named is HEY. Briefly: Cytotoxicity against human HEY cell line by MTT assay. The test is classed as functional, cell-based.
Test [3] deals with MDA-MB-435. Briefly: Cytotoxicity against human MDA-MB-435 cell line by MTT assay. The test is classed as functional, cell-based.
Test [4] relates to MCF7. Briefly: Cytotoxicity against human MCF7 cell line by MTT assay. The test is classed as functional, cell-based.
The next test addresses Integrin alpha-V/beta-3 (Homo sapiens, UniProt P05106+P06756). The test is described as follows: Inhibition of [125I]echistatin binding to integrin alphaVbeta3 receptor. The test is classed as protein-complex assay.
For test [5], the system named is MDA-MB-435. Briefly: Cytotoxicity against human MDA-MB-435 cell line at 20 uM by MTT assay. Format: functional.
Another test deals with NCI-H1975. Briefly: Cytotoxicity against human NCI-H1975 cell line by MTT assay. The test is classed as functional, cell-based.
A further test concerns NIH3T3. The test is described as follows: Cytotoxicity against mouse NIH3T3 cell line by MTT assay. Format: functional, cell-based.
Test [6] relates to MCF7. The test is described as follows: Cytotoxicity against human MCF7 cell line at 20 uM by MTT assay. Format: functional.

Integrin alpha-V/beta-3, sequence (P05106 27-788 limits assumed): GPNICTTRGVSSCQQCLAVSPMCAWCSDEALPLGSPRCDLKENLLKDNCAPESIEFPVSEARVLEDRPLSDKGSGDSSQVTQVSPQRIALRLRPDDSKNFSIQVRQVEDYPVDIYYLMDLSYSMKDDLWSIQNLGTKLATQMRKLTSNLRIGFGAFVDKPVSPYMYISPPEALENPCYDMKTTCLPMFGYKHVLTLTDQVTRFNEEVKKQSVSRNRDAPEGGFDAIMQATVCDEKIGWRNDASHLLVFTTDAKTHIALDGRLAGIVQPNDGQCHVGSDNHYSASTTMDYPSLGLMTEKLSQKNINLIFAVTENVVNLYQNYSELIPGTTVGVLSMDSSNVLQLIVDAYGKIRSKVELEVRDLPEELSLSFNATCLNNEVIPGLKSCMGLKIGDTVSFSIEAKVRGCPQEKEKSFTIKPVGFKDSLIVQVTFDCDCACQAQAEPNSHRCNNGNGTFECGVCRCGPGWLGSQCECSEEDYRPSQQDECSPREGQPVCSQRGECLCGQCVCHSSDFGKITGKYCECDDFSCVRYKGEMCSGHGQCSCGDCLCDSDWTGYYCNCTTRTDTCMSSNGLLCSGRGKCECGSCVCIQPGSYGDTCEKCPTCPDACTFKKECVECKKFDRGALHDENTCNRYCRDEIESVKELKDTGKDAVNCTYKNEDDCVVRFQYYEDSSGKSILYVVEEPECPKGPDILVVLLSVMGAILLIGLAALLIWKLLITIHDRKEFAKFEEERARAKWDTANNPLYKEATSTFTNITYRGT
Integrin alpha-V/beta-3, sequence (P06756 31-889 limits assumed): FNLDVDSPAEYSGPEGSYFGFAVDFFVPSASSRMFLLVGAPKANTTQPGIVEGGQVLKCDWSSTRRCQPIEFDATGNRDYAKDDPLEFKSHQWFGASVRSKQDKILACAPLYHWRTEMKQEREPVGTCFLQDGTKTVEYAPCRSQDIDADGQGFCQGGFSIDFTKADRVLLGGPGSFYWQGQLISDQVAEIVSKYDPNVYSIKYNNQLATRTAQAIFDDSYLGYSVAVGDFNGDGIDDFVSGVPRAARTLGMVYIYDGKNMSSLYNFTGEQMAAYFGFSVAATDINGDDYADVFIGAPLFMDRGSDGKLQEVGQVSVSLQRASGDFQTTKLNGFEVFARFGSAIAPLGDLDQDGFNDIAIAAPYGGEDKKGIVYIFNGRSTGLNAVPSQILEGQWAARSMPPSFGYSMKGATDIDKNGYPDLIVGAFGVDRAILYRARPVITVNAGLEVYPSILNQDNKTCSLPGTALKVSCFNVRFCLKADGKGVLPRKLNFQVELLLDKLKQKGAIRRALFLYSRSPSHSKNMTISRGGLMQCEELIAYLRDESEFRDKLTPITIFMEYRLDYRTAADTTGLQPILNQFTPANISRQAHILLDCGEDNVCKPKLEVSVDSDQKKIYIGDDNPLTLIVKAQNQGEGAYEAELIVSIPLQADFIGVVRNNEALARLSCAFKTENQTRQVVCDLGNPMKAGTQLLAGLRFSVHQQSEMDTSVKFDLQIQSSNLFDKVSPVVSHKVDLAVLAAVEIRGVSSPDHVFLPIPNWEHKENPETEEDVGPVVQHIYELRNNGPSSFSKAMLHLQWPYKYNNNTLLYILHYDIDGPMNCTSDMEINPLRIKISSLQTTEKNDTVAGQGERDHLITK
Integrin alpha-V/beta-3, sequence (P06756 891-1048 limits assumed): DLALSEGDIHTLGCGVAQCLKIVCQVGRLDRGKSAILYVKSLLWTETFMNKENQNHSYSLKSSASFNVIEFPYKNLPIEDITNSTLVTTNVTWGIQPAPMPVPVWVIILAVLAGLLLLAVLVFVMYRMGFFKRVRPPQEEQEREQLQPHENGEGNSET

Consider `Nc1nc(=O)c2cc(CSc3ccc(C(=O)NC(CCC(=O)O)C(=O)O)cc3)ccc2[nH]1` (configuration not stated), for which at 20 µM the inhibition in the test on HEY [1] was 0%.
Still for that read-out and setting: under `Nc1nc(O)c2cc(COc3ccc(C(=O)NC(CCC(=O)O)C(=O)O)cc3)ccc2n1` (configuration not stated) stands 6%.
In the test with HEY [1], `COc1cc(/C=N/Nc2nc(Nc3ccc(F)cc3)nc(N3CCCCC3)n2)ccc1OCC(=O)O` showed an inhibition at 20 µM of 0%.
Compound `CCn1cc(C(=O)O)c(=O)c2cc(F)c(N3CCN(S(=O)(=O)c4ccc(NC(C)=O)cc4)CC3)cc21` came in with an inhibition at 20 µM in the test with HEY [1] of 0%.
`O=C(O)c1ccc(-c2ccc(/C=N/Nc3nc(Nc4ccccc4)nc(Nc4ccccc4)n3)o2)cc1`: the IC50 in the test on HEY [2] is 21 µM; in the test with MDA-MB-435 [3], 18 µM; with MCF7 [4], greater than 20 µM.
`CC(=O)Nc1nc(O)c2nc(CCN(C)c3ccc(C(=O)O)cc3)cnc2n1` showed an inhibition at 20 µM in the test on HEY [1] of 0%.
`Cc1ccnc(NS(=O)(=O)c2ccc(NC(=O)c3ccc(C(=O)O)cc3C(=O)O)cc2)n1` came in with an inhibition at 20 µM with HEY [1] of 0%.
`CC1=NN(c2ccc(C(=O)O)cc2)C(=O)/C1=C/c1ccc(-c2ccc(S(N)(=O)=O)cc2)o1`: the values for the IC50 in the test with HEY [2], in the test with MDA-MB-435 [3] and in the test on MCF7 [4] were greater than 20 µM, greater than 20 µM and 19 µM, respectively. Further, in the test with HEY [1], 20 µM produced 6% inhibition.
In the test with HEY [1], `O=C(CCCCn1cnc2c(S)ncnc21)Nc1ccc(C(=O)O)c(O)c1` came in with an inhibition at 20 µM of 0%.
Consider `CCOc1cc(/C=C2/S/C(=N\c3ccc(C(=O)O)cc3)N(C)C2=O)ccc1O`, for which the IC50 with HEY [2] is 13 µM; with MDA-MB-435 [3], 0.34 µM; at Integrin alpha-V/beta-3 it was 0.24 µM; in the test on NCI-H1975 it was greater than 20 µM; with NIH3T3 it was greater than 20 µM; in the test on MCF7 [4] it was greater than 20 µM. The inhibition at 20 µM came out at 94% in the test with MDA-MB-435 [5], 51% with HEY [1] and 37% in the test on MCF7 [6].
On to `CN(C)c1ccc(/C=C2\SC(=Nc3ccc(O)cc3)NC2=O)cc1`, for which the IC50 in the test on HEY [2] was greater than 20 µM; with MDA-MB-435 [3], 2.8 µM; at Integrin alpha-V/beta-3 it was greater than 1 µM; with MCF7 [4], greater than 20 µM.
On to `Cc1nnc(N/N=C/c2ccc(OCC(=O)O)cc2)nc1O`, for which the inhibition at 20 µM in the test with HEY [1] was found to be 0%.
Consider `COc1cc(O)c(Cl)cc1/C=C1\S/C(=N/c2cccc(C(=O)O)c2)N(C)C1=O`, for which the inhibition at 20 µM was 3% with MDA-MB-435 [5], 0% in the test on HEY [1] and 9% in the test with MCF7 [6].
With `CCOc1ccc(/N=C2/S/C(=C\c3ccc(N(C)C)cc3)C(=O)N2CC)cc1`, the IC50 in the test on HEY [2], in the test with MDA-MB-435 [3], in the test with NCI-H1975, in the test with NIH3T3 and with MCF7 [4] was greater than 20 µM throughout.
With `Cc1ccc(NC(=O)CN2C(=O)N/C(=C\c3cccn3-c3cccc(C(=O)O)c3)C2=O)cc1`, the IC50 in the test on HEY [2], in the test on MDA-MB-435 [3], in the test with NCI-H1975, with NIH3T3 and with MCF7 [4] was greater than 20 µM in each case. In the test with HEY [1], testing at 20 µM gave an inhibition of 5%.
On to `CCOc1cc(/C=N/Nc2nc(Nc3ccccc3)nc(N3CCCCC3)n2)ccc1OCC(=O)O`, for which the inhibition at 20 µM with HEY [1] was determined as 0%.
Consider `CC1=C(C#N)c2nc(N)c(C#N)c(C)c2/C1=C/c1ccc(-c2ccc(Cl)c(C(=O)O)c2)o1`, for which, in the test on HEY [1], at 20 µM the inhibition was 14%.
The compound `Nc1ccc(C(=O)Nc2nc3ccc(C(=O)O)cc3s2)cc1` displayed an inhibition at 20 µM in the test with HEY [1] of 0%.
As to `O=C(O)c1cccc(-c2ccc(/C=N/Nc3nc4nonc4nc3Nc3ccc(F)cc3)o2)c1`, the IC50 with HEY [2] was 7 µM; with MDA-MB-435 [3], 8 µM; on Integrin alpha-V/beta-3 it was greater than 1 µM; in the test on NCI-H1975, greater than 20 µM; with NIH3T3 it was 13 µM; in the test on MCF7 [4] it was 19 µM. The compound further yielded an inhibition at 20 µM in the test with HEY [1] of 90%.
Take `CS(=O)(=O)Nc1ccc(C2=NN(C(=O)CCCC(=O)O)C(c3ccco3)C2)cc1` (configuration not stated): the concentration for half-maximal inhibition (IC50) with HEY [2], with MDA-MB-435 [3], in the test with NCI-H1975, in the test with NIH3T3 and in the test with MCF7 [4] was greater than 20 µM throughout.
Take `Nc1nc(O)c2nc3c(nc2n1)C(=O)N(c1ccc(C(=O)NC(CCC(=O)O)C(=O)O)cc1)C3` (configuration not stated): in the test on HEY [1], 20 µM produced 0% inhibition.
In the case of `O=C(CSc1nnn(-c2ccc(O)cc2)n1)NCc1cccc(C(=O)O)c1`, the inhibition at 20 µM in the test on MDA-MB-435 [5] was 9%; in the test with HEY [1] it was 0%; in the test on MCF7 [6], 34%.
`COc1cc(Cl)c(/C=C2\S/C(=N/c3cccc(C(=O)O)c3)N(C)C2=O)cc1OC`: the half-inhibitory concentration (IC50) in the test with HEY [2], in the test on MDA-MB-435 [3], with NCI-H1975, in the test on NIH3T3 and in the test with MCF7 [4] was greater than 20 µM throughout. In addition, the inhibition at 20 µM with HEY [1] was 0%.
With `CC1=NN(c2ccc(S(N)(=O)=O)cc2)C(=O)/C1=C\c1ccc(-c2ccccc2C(=O)O)o1`, the figures for the inhibition at 20 µM in the test on MDA-MB-435 [5], in the test on HEY [1] and with MCF7 [6] were 24%, 5% and 20%, respectively.
The compound `O=C(O)COc1ccc(/C=N/NC(=O)c2ccc(O)cc2)cc1OCC(=O)O` returned an inhibition at 20 µM in the test on HEY [1] of 9%.
With `COc1cc(/C=C2/NC(=O)N(CC(=O)Nc3ccc(C)cc3)C2=O)ccc1OCc1cccc(C(=O)O)c1`, the inhibition at 20 µM is 26% in the test on MDA-MB-435 [5], 0% in the test with HEY [1] and 43% in the test on MCF7 [6].
In the test with HEY [1], `CN(Cc1cnc2nc(N)nc(N)c2n1)c1ccc(C(=O)NC(CCCCN)C(=O)O)cc1` (configuration not stated) had an inhibition at 20 µM of 0%.
The same measure, in the same setting: under `COc1cc(OC)c(/C=C2\S/C(=N/c3ccc(C(=O)O)cc3)N(C)C2=O)cc1Br` stands 4%.
Take `Nc1nc(O)c2nc(CCCNc3ccc(C(=O)NC(CCC(=O)O)C(=O)O)cc3)cnc2n1` (configuration not stated): the IC50 in the test on HEY [2], in the test on MDA-MB-435 [3], in the test with NCI-H1975, in the test with NIH3T3 and in the test with MCF7 [4] was greater than 20 µM each time. This compound also had an inhibition at 20 µM in the test on HEY [1] of 0%.

In general, inhibition refers to the drop in the measured response relative to a control, in per cent. A higher inhibition goes with a strong effect. For orientation: IC50 means the concentration that gives 50% inhibition.

These data come from ChEMBL document CHEMBL1137431, “Discovery of small molecule integrin alphavbeta3 antagonists as novel anticancer agents” (J Med Chem, 2006).
